The NIST ThermoML archive (doi:10.1016/j.jct.2007.07.002)

Conditions: Gas, double Helmholtz acoustic resonator

[C-]#[O+] [carbon monoxide]
Conditions | kinematic viscosity [m2/s] | speed of sound [m/s]
225 K, 250.04 kPa | 3.74e-06 | 305.59
225 K, 371.9 kPa | 2.5e-06 | 305.42
225 K, 499.99 kPa | 1.86e-06 | 305.4
225 K, 560.56 kPa | 1.68e-06 | 305.34
225 K, 743.07 kPa | 1.25e-06 | 305.24
225 K, 750 kPa | 1.23e-06 | 305.26
225 K, 934.61 kPa | 1e-06 | 305.14
225 K, 1000 kPa | 9.4e-07 | 305.15
225 K, 1141.5 kPa | 8.17e-07 | 305.06
225 K, 1250 kPa | 7.36e-07 | 305.04
225 K, 1345.6 kPa | 6.95e-07 | 304.99
225 K, 1500 kPa | 6.19e-07 | 304.99
225 K, 1581.5 kPa | 5.88e-07 | 304.94
225 K, 1750 kPa | 5.32e-07 | 304.95
225 K, 1787.1 kPa | 5.2e-07 | 304.91
225 K, 2000 kPa | 4.66e-07 | 304.94
225 K, 2016.1 kPa | 4.63e-07 | 304.91
225 K, 2264 kPa | 4.14e-07 | 304.94
225 K, 2454.7 kPa | 3.79e-07 | 304.96
250 K, 221.65 kPa | 5.37e-06 | 322.56
250 K, 401.55 kPa | 2.88e-06 | 322.4
250 K, 587.83 kPa | 1.95e-06 | 322.43
250 K, 791.25 kPa | 1.45e-06 | 322.51
250 K, 982.55 kPa | 1.16e-06 | 322.58
250 K, 1169.1 kPa | 9.78e-07 | 322.67
250 K, 1392.3 kPa | 8.19e-07 | 322.79
250 K, 1587.8 kPa | 7.19e-07 | 322.93
250 K, 1808.2 kPa | 6.28e-07 | 323.08
250 K, 2050.1 kPa | 5.56e-07 | 323.27
250 K, 2241.5 kPa | 5.08e-07 | 323.44
275 K, 250.64 kPa | 5.04e-06 | 338.34
275 K, 286.53 kPa | 4.39e-06 | 338.19
275 K, 465.9 kPa | 2.83e-06 | 338.32
275 K, 500.41 kPa | 2.7e-06 | 338.48
275 K, 652.16 kPa | 2.07e-06 | 338.54
275 K, 750 kPa | 1.84e-06 | 338.76
275 K, 832.04 kPa | 1.63e-06 | 338.75
275 K, 1000 kPa | 1.37e-06 | 338.99
275 K, 1045.4 kPa | 1.3e-06 | 338.99
275 K, 1250 kPa | 1.11e-06 | 339.26
275 K, 1252.2 kPa | 1.09e-06 | 339.22
275 K, 1443.1 kPa | 9.45e-07 | 339.46
275 K, 1500 kPa | 9.2e-07 | 339.57
275 K, 1675 kPa | 8.12e-07 | 339.74
275 K, 1750 kPa | 7.89e-07 | 339.89
275 K, 1882.7 kPa | 7.23e-07 | 340.02
275 K, 2000 kPa | 6.96e-07 | 340.23
275 K, 2150.8 kPa | 6.33e-07 | 340.38
275 K, 2364.7 kPa | 5.79e-07 | 340.69
300 K, 252.56 kPa | 6.71e-06 | 353.44
300 K, 501.19 kPa | 3.25e-06 | 353.74
300 K, 709.53 kPa | 2.28e-06 | 354
300 K, 1000 kPa | 1.64e-06 | 354.52
300 K, 1178.1 kPa | 1.39e-06 | 354.78
300 K, 1250 kPa | 1.31e-06 | 354.91
300 K, 1374 kPa | 1.2e-06 | 355.09
300 K, 1481.5 kPa | 1.12e-06 | 355.27
300 K, 1500 kPa | 1.1e-06 | 355.32
300 K, 1602.1 kPa | 1.03e-06 | 355.46
300 K, 1730.3 kPa | 9.55e-07 | 355.67
300 K, 1750 kPa | 9.47e-07 | 355.74
300 K, 1868 kPa | 8.89e-07 | 355.91
300 K, 2000 kPa | 8.32e-07 | 356.15
300 K, 2005.3 kPa | 8.27e-07 | 356.15
325 K, 303.08 kPa | 5.93e-06 | 367.79
325 K, 515.56 kPa | 3.49e-06 | 368.11
325 K, 732.01 kPa | 2.49e-06 | 368.52
325 K, 943.23 kPa | 1.94e-06 | 368.91
325 K, 1169.7 kPa | 1.57e-06 | 369.33
325 K, 1401.2 kPa | 1.31e-06 | 369.77
325 K, 1633.9 kPa | 1.12e-06 | 370.22
325 K, 1908.7 kPa | 9.62e-07 | 370.77
325 K, 2129.6 kPa | 8.63e-07 | 371.22
325 K, 2413.1 kPa | 7.66e-07 | 371.82
350 K, 342.4 kPa | 6.04e-06 | 381.63
350 K, 544.1 kPa | 3.84e-06 | 382.06
350 K, 775.52 kPa | 2.69e-06 | 382.52
350 K, 1007.1 kPa | 2.06e-06 | 382.99
350 K, 1245.1 kPa | 1.68e-06 | 383.51
350 K, 1461.5 kPa | 1.43e-06 | 383.96
350 K, 1735.1 kPa | 1.21e-06 | 384.56
350 K, 1995.6 kPa | 1.05e-06 | 385.14
350 K, 2208.2 kPa | 9.51e-07 | 385.62
350 K, 2464.2 kPa | 8.55e-07 | 386.21
375 K, 260.28 kPa | 8.45e-06 | 394.36
375 K, 460.71 kPa | 4.99e-06 | 394.79
375 K, 672.43 kPa | 3.42e-06 | 395.31
375 K, 885.97 kPa | 2.63e-06 | 395.84
375 K, 1102.9 kPa | 2.13e-06 | 396.34
375 K, 1302.3 kPa | 1.81e-06 | 396.82
375 K, 1537.5 kPa | 1.53e-06 | 397.37
375 K, 1815.6 kPa | 1.3e-06 | 398.04
375 K, 2026.2 kPa | 1.16e-06 | 398.56
375 K, 2250.6 kPa | 1.05e-06 | 399.12
375 K, 2518.2 kPa | 9.4e-07 | 399.8

FS(F)(F)(F)(F)F [sulfur hexafluoride]
273.16 K
Conditions | kinematic viscosity [m2/s] | speed of sound [m/s]
290.38 kPa | 7.19e-07 | 126.14
386.66 kPa | 5.33e-07 | 124.46
492.4 kPa | 4.1e-07 | 122.54
602.05 kPa | 3.28e-07 | 120.45
712.29 kPa | 2.72e-07 | 118.25
808.73 kPa | 2.35e-07 | 116.21
903.28 kPa | 2.24e-07 | 114.14
1000.5 kPa | 1.81e-07 | 111.81
